Each structure is given as a SMILES string.

In assay [1] the target is T1, [^3 H]iloprost binding to human platelet membranes (Homo sapiens, UniProt P43119).
T1 construct: Membranes were prepared from outdated platelet-rich plasma concentrates obtained from the Blood Transfusion Service; from tissue; host or cells: human platelets (outdated platelet-rich plasma concentrates from the Blood Transfusion Service)
In words: Inhibition of [^3 H]iloprost binding to human platelet membranes. Particulars: [^3 H]iloprost 10 nM; pH 7.4; 30 min at 37° C.; calculated from IC50 for displacement. The protocol:
METHOD FOR MEASUREMENT OF KI FOR INHIBITION OF [^3 H]ILOPROST BINDING TO HUMAN PLATELET MEMBRANES
Membranes were prepared from outdated platelet-rich plasma concentrates obtained from the Blood Transfusion Service. The platelets were homogenised in buffer containing Tris-Cl (5 mM, pH 7.4 at 20° C.) and EDTA (0.25 mM), and then centrifuged (10 min at 26,000 g). The membrane pellet was washed twice by homogenisation in buffer containing Tris-Cl (50 mM, pH 7.4 at 20° C.) and EDTA (0.25 mM), followed by centrifugation. For measurement of [^3 H]iloprost binding, membranes (0.4-0.8 mg) were incubated in the presence of Tris-Cl (50 mM, pH 7.4 at 20° C.), MgCl2 (4 mM), EDTA (40 μM), […] (10 nM), DMSO (1.85%), and varying concentrations of the test compounds. For determination of non-specific binding, 20 μM iloprost was included. The tubes (triplicates for each condition) were set up on ice, and then incubated for 30 min at 37° C. The incubations were terminated by rapid filtration on Whatman GF/B filters using a Brandel Harvester. The filters were washed and then counted for radioactivity. The Ki of the test compounds for inhibition of binding of [^3 H] iloprost to human platelet membranes was calculated from the IC50 for displacement of [^3 H]iloprost binding.

The subject of assay [2] is washed human platelets. Put plainly: Aggregation of washed human platelets (stimulus 1 μM U46619). The format is cell-based. Particulars: Platelet; aspirin-treated washed human platelets; compound added 2 min before 1 μM U46619; assessed 4 min after stimulus; 37° C. The protocol: METHOD FOR MEASUREMENT OF AGGREGATION OF WASHED HUMAN PLATELETS
Platelets were prepared from freshly drawn human blood. Blood was collected into acid citrate anticoagulant, centrifuged (5 min at 500 g), and the upper layer of platelet-rich plasma was removed. This platelet-rich plasma was incubated with aspirin (100 μM) for 10 min at 37° C. and then centrifuged (15 min at 200 g). The platelet pellet was resuspended (at approx. 1.5×10^8 cells/ml) in medium containing NaCl (145 mM), KCl (5 mM), MgCl2 (1 mM), CaCl2 (0.2 mM), Hepes (10 mM, ph 7.4 at 37° C.), glucose (10 mM), apyrase (10 μg/ml). Aggregation was monitored (as a change in optical density) at 37° C. in a 4 channel aggregometer (PAP-4 from Biodata Corp.). Fibrinogen (1 mg/ml) and CaCl2 (1 mM) were added to aliquots of platelets that were continuously stirred. The test compound (or 0.1% DMSO vehicle) was added 2 min before the aggregatory stimulus (1 μM U46619). The extent of aggregation was assessed 4 min after addition of the stimulus, and was calculated as % of the control response in the absence of test compound. Dose-response curves were constructed for measurement of IC50 values for each compound.

T1 sequence (P43119 whole entry, the tested form may be a part): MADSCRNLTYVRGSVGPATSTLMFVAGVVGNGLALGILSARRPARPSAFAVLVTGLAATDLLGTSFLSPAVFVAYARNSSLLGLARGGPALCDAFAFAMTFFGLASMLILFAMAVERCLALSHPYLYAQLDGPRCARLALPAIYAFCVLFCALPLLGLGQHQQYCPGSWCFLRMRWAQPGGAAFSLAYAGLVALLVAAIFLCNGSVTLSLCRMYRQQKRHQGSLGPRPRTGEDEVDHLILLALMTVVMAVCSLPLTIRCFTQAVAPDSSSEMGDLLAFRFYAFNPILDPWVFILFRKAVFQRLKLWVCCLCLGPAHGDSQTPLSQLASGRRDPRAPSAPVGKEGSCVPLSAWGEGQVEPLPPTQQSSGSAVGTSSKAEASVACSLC

`CCOP(C)(=O)CCCCCCCn1c(-c2ccccc2)c(-c2ccccc2)n(-c2ccccc2)c1=O` (centres unmarked) [Example 4, Ethyl 7-(3,4,5-triphenyl-2-oxo-2,3-dihydroimidazol-1-yl)methylphosphinate]: the Ki in assay [1] was 19 µM. The same compound came in with an IC50 in assay [2] of 21 µM.
Turning to `O=c1n(CCCCCCCP(=O)(O)O)c(-c2ccccc2)c(-c2ccccc2)n1-c1ccccc1` [Example 3, 7-(3,4,5-Triphenyl-2-oxo-2,3-dihydroimidazol-1-yl)-heptanephosphonic acid], the Ki in assay [1] is 1.29 µM. For the same compound, the IC50 in assay [2] worked out at 43 µM.
`O=c1n(CCCCCCCS(=O)(=O)O)c(-c2ccccc2)c(-c2ccccc2)n1-c1ccccc1` [Example 1, Sodium 7(3,4,5-triphenyl-2-oxo-2,3-dihydroimidazol-1-yl)-heptanesulphonate]: in assay [1], the inhibition constant Ki was 8 µM. For the same compound, the IC50 in assay [2] came out at 0.25 µM.
On to `CCOP(=O)(CCCCCCCn1c(-c2ccccc2)c(-c2ccccc2)n(-c2ccccc2)c1=O)OCC` [Example 2, Diethyl 7-(3,4,5-triphenyl-2-oxo-2,3-dihydroimidazol-1-yl)heptanephosphonate], for which, in assay [1], the Ki is 30 µM. The compound also came in with a half-inhibitory concentration (IC50) in assay [2] of 5.5 µM.

By Ki is commonly meant a measure of affinity in units of concentration, obtained from inhibition or displacement. As usually defined, the IC50 is the concentration needed to halve the response being measured. A high value points to weaker potency in that assay.

The values are drawn from US5338752A, “Substituted 2-imidazolone derivatives, their preparation and pharmaceutical compositions” (SK&F Laboratories Ltd., priority 1990, dated 1994).
